The text below walks through data of patent publication US8476255B2, “Histone deacetylase inhibitors” (Orchid Chemicals & Pharmaceuticals Limited, priority 2007, dated 2013).

Each structure is given as a SMILES string.

Assay type in all cases: cell-based
In assay [1] the test system is Acetylated histone (H3). Briefly: Histone (H3) acetylation, sandwich ELISA in HCT116 lysate. The following applies: HCT116, 4 hours. On the procedure:
Acetylated histone (H3), acetylated Tubulin and p21 levels were detected in cell lysate by sandwich ELISA method (Cell Signaling Technology, USA, Cat No: 7232, 7204 & 7167 respectively) by following manufacturer's instructions. Briefly, colon cancer cells (HCT116. 10,000/well) were incubated with test compound (1 and 10 μM) or medium (control) for 4 hours at 37° C. in CO2 incubator. The incubation lasted 18 hours for p21 induction. After incubation, cell lysates were prepared in cell lysis buffer by sonication on ice. The lysates were collected after centrifugation and subjected to ELISA test procedure. 100 μL of each diluted cell lysate in dilution buffer (1:1) was added to appropriate capture antibody coated microwells and incubated overnight at 4° C. After washing, 100 μL of detection antibody was added for 1 hour at 37° C. After second washing, 100 μL of HRP-linked secondary antibody was added for 30 min at 37° C. Finally, after appropriate washing, 100 μL of TMB substrate was added for 10 min at 37° C. followed by 100 μL of stop solution. The absorbance of individual wells was read using a spectrophotometer at 450 nm (A450).

Assay [2] relates to HCT 116 (colon) cells. Put plainly: Anti-cancer screen (MTT), HCT 116. The settings on record: Homo sapiens, HCT-116, HCT116, 48 hours, MTT. Put shortly: (§1)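 An MTT readout (absorbance at 570 nm) measured growth after 48 h of treatment at five final concentrations, 0.01–100 μM, each in triplicate. A T0 plate read at the time of dosing served as baseline. Cultures were in DMEM plus 10% FBS and pre-incubated 24 h at 37° C., with SAHA as the reference drug.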

Assay [3] concerns NCIH460 (lung) cells. Briefly: Anti-cancer screen (MTT), NCIH460. The settings on record: Homo sapiens, NCI-H460, NCIH460, 48 hours, MTT. Put shortly:
as §1

For assay [4], the system named is NCIH460, HCT116 and U251 cells. Put plainly: Anti-cancer screen, mean GI50 over cell lines. The following applies: mean over cell lines; read-out: Cell growth inhibition Mean GI50. Put shortly:
as §1

On to `COc1ccc(/C=C(/C(=O)NCc2ccc(C(=O)Nc3ccccc3N)cc2)c2ccc(F)cc2)cc1OC` [Compound 19, N-(2-Aminophenyl)-4-((3-(3,4-dimethoxyphenyl)-2-(4-fluorophenyl)acrylamido)methyl)benzamide], for which the “H3 acetylation (Fold increase)” value was 4 Fold increase in assay [1] (1 μM) and 16 Fold increase in assay [1] (10 μM). The concentration for 50% growth inhibition (GI50) is 300 nM in assay [2] (read-out: Cell growth inhibition HCT116 (Colon) GI50), 2500 nM in assay [3] (read-out: Cell growth inhibition NCIH460 (Lung) GI50) and 1000 nM in assay [4]. In assay [2] (read-out: Cell growth inhibition HCT116 (Colon) LC50), the CC50 was 58 µM. In addition, the IC (TGI) in assay [2] (read-out: Cell growth inhibition HCT116 (Colon) TGI) is 5 µM; in assay [3] (read-out: Cell growth inhibition NCIH460 (Lung) TGI) it was 8 µM. Further, the LC50 in assay [3] (read-out: Cell growth inhibition NCIH460 (Lung) LC50) stood at 70 µM.
